ChEMBL document CHEMBL1150881, “Glacins A and B: two novel bioactive mono-tetrahydrofuran acetogenins from Annona glabra” (J Nat Prod, 1998)
In brackets after ≈: the same amount, converted by molar mass.

Key:
MCF7 = test: Cytotoxicity against human MCF7 cells after 7 days by MTT assay; type: functional; details: MCF7, 168 h, read-out: ED50 (the source's name)
MIA PaCa-2 = test: Cytotoxicity against human MIAPaCa2 cells after 7 days by MTT assay; type: functional; details: MIA PaCa-2, 168 h, read-out: ED50 (the source's name)
PC-3 = test: Cytotoxicity against human PC3 cells after 7 days by MTT assay; type: functional; details: PC-3, 168 h, read-out: ED50 (the source's name)
A498 = test: Cytotoxicity against human A498 cells after 7 days by MTT assay; type: functional; details: A498, 168 h, read-out: ED50 (the source's name)
A549 = test: Cytotoxicity against human A549 cells after 7 days by MTT assay; type: functional; details: A549, 168 h, read-out: ED50 (the source's name)
HT-29 = test: Cytotoxicity against human HT-29 cells after 7 days by MTT assay; type: functional; details: HT-29, 168 h, read-out: ED50 (the source's name)
[1] = Toxicity in Artemia salina; type: organism-based; details: in vivo

Row | SMILES | EC50 (MCF7) | EC50 (MIA PaCa-2) | EC50 (PC-3) | EC50 (A498) | EC50 (A549) | EC50 (HT-29) | LC50 [1]
1 | COc1cccc2c1C(=O)c1c(O)c3c(c(O)c1C2=O)C[C@@](O)(C(=O)CO)C[C@@H]3O[C@H]1C[C@H](N)[C@H](O)[C@H](C)O1 [DOXORUBICIN] | 0.179 µg/mL (≈ 0.329 µM) | 0.0153 µg/mL (≈ 0.0281 µM) | 0.046 µg/mL (≈ 0.0846 µM) | 0.0062 µg/mL (≈ 0.0114 µM) | 0.0191 µg/mL (≈ 0.0351 µM) | 0.0278 µg/mL (≈ 0.0511 µM) | –
2 | CCCCCCCCCC[C@@H](O)[C@H]1CC[C@H]([C@H](O)CCCC[C@H](O)CCCCCCC[C@@H](O)CC2=C[C@H](C)OC2=O)O1 [GLACIN A] | 0.00442 µg/mL (≈ 0.00741 µM) | 0.00857 µg/mL (≈ 0.0144 µM) | 0.00981 µg/mL (≈ 0.0164 µM) | 1.25 µg/mL (≈ 2.09 µM) | 1.53 µg/mL (≈ 2.56 µM) | 2.3 µg/mL (≈ 3.85 µM) | 0.11 µg/mL (≈ 0.184 µM)
3 | CCCCCCCCCC[C@H](O)[C@@H](O)CCCC[C@H]1CC[C@H]([C@H]2CC[C@H]([C@H](O)CCCCC[C@@H](O)CC3=C[C@H](C)OC3=O)O2)O1 [GLACIN B] | 0.052 µg/mL (≈ 0.0814 µM) | 0.0274 µg/mL (≈ 0.0429 µM) | 0.0559 µg/mL (≈ 0.0875 µM) | 2.61 µg/mL (≈ 4.08 µM) | 1.29 µg/mL (≈ 2.02 µM) | 0.0868 µg/mL (≈ 0.136 µM) | 0.27 µg/mL (≈ 0.423 µM)
